Test system: NOMO1
Test: cell viability relative to DMSO control; higher = less cytotoxic
Settings: 48 h
Summary of the method: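 Viability is a per-plate percentage relative to DMSO wells, with cell-free wells as background. CellTiter-Glo One luminescence was read after 48 h at 37°C on 1536-well plates (5 μl) of NOMO1 or SEM (500 cells/well) or P12-Ichikawa (1000 cells/well) leukemia cells. The cells had been adapted for at least four passages in each medium and pin-dosed with library compounds in DMSO from 47 μM to 0.79 nM in 11 threefold steps.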

[1] = HPLM + 10% dialyzed FBS, 0.000781 µM
[2] = HPLM + 10% dialyzed FBS, 0.00234 µM
[3] = HPLM + 10% dialyzed FBS, 0.00702 µM
[4] = HPLM + 10% dialyzed FBS, 0.0211 µM
[5] = HPLM + 10% dialyzed FBS, 0.0632 µM
[6] = HPLM + 10% dialyzed FBS, 0.19 µM
[7] = HPLM + 10% dialyzed FBS, 0.569 µM
[8] = HPLM + 10% dialyzed FBS, 1.71 µM
[9] = HPLM + 10% dialyzed FBS, 5.12 µM
[10] = HPLM + 10% dialyzed FBS, 15.4 µM
[11] = HPLM + 10% dialyzed FBS, 46.1 µM
[12] = RPMI 5 mM glucose + 10% FBS, 0.000781 µM
[13] = RPMI 5 mM glucose + 10% FBS, 0.00234 µM
[14] = RPMI 5 mM glucose + 10% FBS, 0.00702 µM
[15] = RPMI 5 mM glucose + 10% FBS, 0.0211 µM
[16] = RPMI 5 mM glucose + 10% FBS, 0.0632 µM
[17] = RPMI 5 mM glucose + 10% FBS, 0.19 µM
[18] = RPMI 5 mM glucose + 10% FBS, 0.569 µM
[19] = RPMI 5 mM glucose + 10% FBS, 1.71 µM
[20] = RPMI 5 mM glucose + 10% FBS, 5.12 µM
[21] = RPMI 5 mM glucose + 10% FBS, 15.4 µM
[22] = RPMI 5 mM glucose + 10% FBS, 46.1 µM
[23] = RPMI 5 mM glucose + 10% dialyzed FBS, 0.000781 µM
[24] = RPMI 5 mM glucose + 10% dialyzed FBS, 0.00234 µM
[25] = RPMI 5 mM glucose + 10% dialyzed FBS, 0.00702 µM
[26] = RPMI 5 mM glucose + 10% dialyzed FBS, 0.0211 µM
[27] = RPMI 5 mM glucose + 10% dialyzed FBS, 0.0632 µM
[28] = RPMI 5 mM glucose + 10% dialyzed FBS, 0.19 µM
[29] = RPMI 5 mM glucose + 10% dialyzed FBS, 0.569 µM
[30] = RPMI 5 mM glucose + 10% dialyzed FBS, 1.71 µM
[31] = RPMI 5 mM glucose + 10% dialyzed FBS, 5.12 µM
[32] = RPMI 5 mM glucose + 10% dialyzed FBS, 15.4 µM
[33] = RPMI 5 mM glucose + 10% dialyzed FBS, 46.1 µM

Compound	cell viability [1] [%]	cell viability [2] [%]	cell viability [3] [%]	cell viability [4] [%]	cell viability [5] [%]	cell viability [6] [%]	cell viability [7] [%]	cell viability [8] [%]	cell viability [9] [%]	cell viability [10] [%]	cell viability [11] [%]	cell viability [12] [%]	cell viability [13] [%]	cell viability [14] [%]	cell viability [15] [%]	cell viability [16] [%]	cell viability [17] [%]	cell viability [18] [%]	cell viability [19] [%]	cell viability [20] [%]	cell viability [21] [%]	cell viability [22] [%]	cell viability [23] [%]	cell viability [24] [%]	cell viability [25] [%]	cell viability [26] [%]	cell viability [27] [%]	cell viability [28] [%]	cell viability [29] [%]	cell viability [30] [%]	cell viability [31] [%]	cell viability [32] [%]	cell viability [33] [%]
O=C(O)Cc1cccc(OCCCN(Cc2cccc(C(F)(F)F)c2Cl)CC(c2ccccc2)c2ccccc2)c1	122	123	136	110	114	108	118	99.3	106	118	114																						
Cc1ccc(-c2cc(C(F)(F)F)nn2-c2ccc([S+](N)(=O)[O-])cc2)cc1												115	122	110	126	126	114	115	112	112	128	103	121	119	121	118	107	110	117	121	104	109	92.7
O=C(NCc1ccccc1)c1csc(Nc2ccncn2)n1	86.8	95.2	101	94	121	97.3	97.6	51.2	26.7	4.88	2.11	90.8	82.1	98.6	83	94.8	98.2	95.4	56.6	33.4	4.95	3.15	92	95	93.2	85.2	93.7	77.2	103	67.7	33.9	4.75	3.19
N#CC[C@H](C1CCCC1)n1cc(-c2ncnc3[nH]ccc23)cn1	117	106	103	91.3	105	107	85.1	85.8	61.4	21.2	15.7	94.3	84.2	101	78.9	82.7	79.1	87.1	78.1	91.3	43	14.8	97.1	102	93.2	66	108	93.8	88.7	89.9	79.9	61.2	41.2
CN(C)CCOc1ccc(/C(=C(/CCCl)c2ccccc2)c2ccccc2)cc1	105	116	98	94.7	104	126	100	115	95.5	68.5	42.2	106	104	111	109	103	94.2	115	105	99.1	57.3	39.6	93.4	110	113	116	108	125	108	120	107	76.9	50.6
C[C@H](NCc1ccc(OCc2cccc(F)c2)cc1)C(N)=O	87.6	125	121	113	116	116	124	133	97.7	95.1	18.4	110	109	106	108	106	117	122	111	113	104	50.3	110	114	125	110	107	123	111	116	99.7	97.4	62.8
CC(C)CC(N(C)C)C1(c2ccc(Cl)cc2)CCC1 (centres undefined)	118	136	120	119	116	117	116	113	107	94.5	87	110	113	113	118	117	123	119	116	98.2	94.1	99	109	110	124	115	122	119	120	112	111	103	95.1
Cc1cccc(-c2[nH]c(C(C)(C)C)nc2-c2ccc3c(c2)OCO3)n1	94.7	105	107	114	115	95.4	104	114	103	24	11.9	97.4	106	100	93.4	101	92.7	100	92.6	86.3	11.5	8.98	101	92.1	94.4	94.3	107	86.9	92.8	97.2	97.3	13.9	9.64
N=C(N)Nc1ccc(C(=O)Oc2ccc3cc(C(=N)N)ccc3c2)cc1	96.3	103	100	100	101	95.6	93.5	100	81.1	89.6	48	93.7	84.8	83.5	86.6	90.8	86	90.7	89.8	90.5	73.3	50.6	86	85.3	78.6	90.4	95.3	92.4	79.4	83.7	88.7	70.5	45.3
Cc1ccc([S+](=O)([O-])Nc2cc(Cl)ccc2C(=O)Nc2nc(-c3ccccc3)cs2)cc1	122	117	129	118	121	124	128	119	103	119	9.35																						
COC(=O)Nc1nc2ccc([S+]([O-])c3ccccc3)cc2[nH]1 (centres undefined)	96.8	106	119	110	101	119	121	113	101	97.9	66.7												113	123	120	131	136	137	123	134	130	116	94.8
C[N+]1(C)[C@@H]2CC(OC(=O)C(O)(c3cccs3)c3cccs3)C[C@H]1[C@@H]1O[C@@H]12 (some centres undefined)	109	113	117	126	107	120	128	113	105	110	102	101	87.9	88.8	116	102	100	92.2	87.8	95.6	94.4	107	90.3	105	104	106	115	94.9	106	97.3	99.4	99	99.9
CO[C@@H]1[C@@H](O)[C@H](O)[C@@H](n2c3c(Cl)cccc3c3c4c(c5c6cccc(Cl)c6[nH]c5c32)C(=O)NC4=O)O[C@H]1CO	103	116	106	103	105	107	89.6	21.6	30.5	25.7	18.3	93.3	91.3	106	105	86.7	86.4	91.7	16.7	20.3	19.3	16.4	84.7	103	89.9	98.5	90.8	99.9	87.2	20.7	21.3	22.6	19.7
C=CC(=O)Nc1ccc2ncnc(Nc3ccc(OCc4cccc(F)c4)c(Cl)c3)c2c1	82.4	93.3	99.9	96.7	105	99.4	98.1	72.4	22.2	17.1	12.6	92.6	91.8	114	115	107	95.8	101	93.3	13.6	14.7	9.53	92.9	85.7	93.5	91.3	104	92.6	93	94	21.4	18.3	11.8
Cc1cnc(Nc2ccc(CN3CCOCC3)cc2)nc1Nc1cccc([S+](=O)([O-])NC(C)(C)C)c1	87.4	98.1	99.1	86.6	81.3	86.9	93.7	75.6	48.1	15.5	10.3	67.8	80	79.7	71.5	75.1	74.2	78.9	68	30.8	8.44	7.72	75.4	85.6	89.4	79.2	84.4	80.8	57.8	69.8	38.3	11.6	9.38
